Assay [1] concerns the target D(2) dopamine receptor (Rattus norvegicus) (UniProt P61169). The assay is described as follows: Binding affinity for Dopamine receptor D2 of rat striatal homogenate.
For assay [2], the target named is Dopamine receptors; D1 & D2 (Rattus norvegicus) (UniProt P18901+P61169). The assay is described as follows: Relative binding affinity for dopamine receptors D1 and D2 in rat striatal homogenates.
Assay [3] concerns the target D(1A) dopamine receptor (Rattus norvegicus) (UniProt P18901). The assay is described as follows: Binding affinity for dopamine receptor D1 in rat striatal homogenate.
Assay [4] has as its target Adenylate cyclase type 5 (Rattus norvegicus) (UniProt Q04400). The experiment in a line: Intrinsic activity measured as ability to stimulate dopamine sensitive Adenylate cyclase activity was measured in rat striatum. It counts as functional, tissue-based.

Structures are written as SMILES. Bounds are passed on as bounds.

D(2) dopamine receptor (Rattus norvegicus), sequence (P61169 whole entry): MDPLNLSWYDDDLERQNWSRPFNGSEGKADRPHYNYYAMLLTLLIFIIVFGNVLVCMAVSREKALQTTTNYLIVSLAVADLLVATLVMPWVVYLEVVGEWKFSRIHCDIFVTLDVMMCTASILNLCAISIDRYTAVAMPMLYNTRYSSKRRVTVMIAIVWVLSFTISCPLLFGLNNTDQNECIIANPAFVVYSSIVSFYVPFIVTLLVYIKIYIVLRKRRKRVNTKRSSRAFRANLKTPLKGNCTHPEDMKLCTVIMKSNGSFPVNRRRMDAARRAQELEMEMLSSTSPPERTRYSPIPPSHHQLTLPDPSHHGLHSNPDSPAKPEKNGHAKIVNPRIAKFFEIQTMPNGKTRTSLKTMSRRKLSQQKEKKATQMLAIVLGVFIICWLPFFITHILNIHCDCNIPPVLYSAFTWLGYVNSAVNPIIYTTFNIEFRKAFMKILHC
Adenylate cyclase type 5 (Rattus norvegicus), sequence (Q04400 whole entry): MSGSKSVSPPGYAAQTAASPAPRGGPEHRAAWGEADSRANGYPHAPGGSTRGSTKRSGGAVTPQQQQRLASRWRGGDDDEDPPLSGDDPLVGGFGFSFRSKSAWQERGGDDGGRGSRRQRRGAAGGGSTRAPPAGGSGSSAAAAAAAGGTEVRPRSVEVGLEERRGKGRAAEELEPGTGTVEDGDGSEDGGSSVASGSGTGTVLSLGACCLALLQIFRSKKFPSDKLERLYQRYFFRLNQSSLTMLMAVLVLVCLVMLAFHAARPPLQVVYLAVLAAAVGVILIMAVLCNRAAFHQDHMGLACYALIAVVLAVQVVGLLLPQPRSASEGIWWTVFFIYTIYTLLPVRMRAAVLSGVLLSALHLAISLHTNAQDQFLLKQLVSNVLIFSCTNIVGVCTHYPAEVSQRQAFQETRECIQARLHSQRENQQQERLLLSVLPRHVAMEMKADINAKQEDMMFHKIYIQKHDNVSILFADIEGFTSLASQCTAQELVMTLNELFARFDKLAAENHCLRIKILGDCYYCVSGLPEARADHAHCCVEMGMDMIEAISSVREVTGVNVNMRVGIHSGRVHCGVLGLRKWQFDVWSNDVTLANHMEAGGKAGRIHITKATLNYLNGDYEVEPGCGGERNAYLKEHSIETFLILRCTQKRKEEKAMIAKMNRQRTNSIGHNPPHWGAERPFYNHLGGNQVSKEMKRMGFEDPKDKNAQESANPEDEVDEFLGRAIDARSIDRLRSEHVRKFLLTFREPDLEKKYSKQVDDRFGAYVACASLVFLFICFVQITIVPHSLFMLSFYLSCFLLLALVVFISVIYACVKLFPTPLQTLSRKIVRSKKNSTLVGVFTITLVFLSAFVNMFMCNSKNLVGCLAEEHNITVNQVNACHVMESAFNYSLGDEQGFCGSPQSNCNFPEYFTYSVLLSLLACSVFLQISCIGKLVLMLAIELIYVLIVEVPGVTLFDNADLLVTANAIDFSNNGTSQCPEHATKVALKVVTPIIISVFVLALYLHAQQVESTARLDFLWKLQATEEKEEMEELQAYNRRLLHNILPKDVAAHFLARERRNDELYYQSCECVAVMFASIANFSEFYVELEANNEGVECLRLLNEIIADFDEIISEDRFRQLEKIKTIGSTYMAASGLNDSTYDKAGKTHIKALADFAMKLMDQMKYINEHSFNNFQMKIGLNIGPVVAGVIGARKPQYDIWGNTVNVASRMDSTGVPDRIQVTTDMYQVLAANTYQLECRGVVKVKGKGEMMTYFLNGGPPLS
D(1A) dopamine receptor (Rattus norvegicus), sequence (P18901 whole entry): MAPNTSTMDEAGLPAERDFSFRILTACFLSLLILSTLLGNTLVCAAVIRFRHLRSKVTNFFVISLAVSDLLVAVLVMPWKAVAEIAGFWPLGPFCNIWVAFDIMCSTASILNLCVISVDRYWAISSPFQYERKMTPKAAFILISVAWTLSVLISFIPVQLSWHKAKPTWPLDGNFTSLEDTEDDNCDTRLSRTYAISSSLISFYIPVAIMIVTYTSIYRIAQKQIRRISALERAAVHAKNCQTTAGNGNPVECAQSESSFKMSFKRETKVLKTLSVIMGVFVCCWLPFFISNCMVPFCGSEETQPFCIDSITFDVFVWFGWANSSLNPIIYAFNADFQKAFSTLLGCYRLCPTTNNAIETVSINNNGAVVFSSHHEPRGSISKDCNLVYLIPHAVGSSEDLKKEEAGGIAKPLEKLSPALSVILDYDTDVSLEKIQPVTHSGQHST

Consider `CCCN1Cc2cc(C)ccc2[C@@H]2c3cc(O)c(O)cc3CC[C@H]21`, for which the K0.5 in assay [1] was determined as 29.4 nM; in assay [3] it was 181 nM. In assay [2], this molecule had a Selectivity of 0.16. In addition, the Intrinsic activity in assay [4] was found to be 20%.

For the molecule `Cc1ccc2c(c1)[C@@H]1c3cc(O)c(O)cc3CC[C@H]1NC2`, in assay [3], the K0.5 was 8.66 nM. Further, the Intrinsic activity in assay [4] was 91%.

With `Oc1cc2c(cc1O)[C@H]1c3ccccc3CN[C@@H]1CC2`, in assay [4], the Intrinsic activity stood at 95%.

As for `Oc1cc2c(cc1O)[C@H]1c3cc(-c4ccccc4)ccc3CN[C@@H]1CC2`, the K0.5 was 90.2 nM in assay [1] and 187 nM in assay [3]. This molecule had a Selectivity in assay [2] of 0.5. In addition, the Intrinsic activity in assay [4] came out at 60%.

In the case of `CCCN1Cc2c(C)cccc2[C@@H]2c3cc(O)c(O)cc3CC[C@H]21`, the K0.5 in assay [1] came out at 9.01 nM; in assay [3] it was 23.4 nM. Further, the Intrinsic activity in assay [4] stood at 89%.

For the molecule `Cc1cccc2c1CN[C@@H]1CCc3cc(O)c(O)cc3[C@@H]21`, the K0.5 in assay [1] came out at 18 nM; in assay [3] it was 6.58 nM. This molecule also yielded a Selectivity in assay [2] of 2.7. The Intrinsic activity in assay [4] amounted to 80%.

On to `O=c1[nH]c2ccccc2n1CCCN1CCC(n2c(=O)[nH]c3cc(Cl)ccc32)CC1`, for which the figures for the K0.5 in assay [1] and in assay [3] were 1 nM and more than 1000 nM, respectively. This molecule also gave a Selectivity in assay [2] of less than 1000.

On to `CCCN1Cc2ccccc2[C@@H]2c3cc(O)c(O)cc3CC[C@H]21`, for which the K0.5 in assay [1] came out at 25.7 nM; in assay [3], 180 nM. In addition, the Intrinsic activity in assay [4] was found to be 40%.

Turning to `CCc1ccc2c(c1)[C@@H]1c3cc(O)c(O)cc3CC[C@H]1NC2`, the K0.5 was 423 nM in assay [1] and 29.2 nM in assay [3]. The same molecule gave a Selectivity in assay [2] of 14.5. Besides, the Intrinsic activity in assay [4] worked out at 103%.

With `Cc1ccc2c(c1)CN[C@@H]1CCc3cc(O)c(O)cc3[C@@H]21`, the figures for the K0.5 in assay [1] and in assay [3] were 18 nM and 5.06 nM, respectively. In assay [2], this molecule registered a Selectivity of 3.6. For the same molecule, the Intrinsic activity in assay [4] was determined as 105%.

For `Oc1ccc2c(c1)CN[C@@H]1CCc3cc(O)c(O)cc3[C@@H]21`, the K0.5 came out at 53.6 nM in assay [1] and 12.2 nM in assay [3]. In assay [2], this molecule returned a Selectivity of 4.4. The Intrinsic activity in assay [4] was 104%.

In turn, `CN1CCc2cc(Cl)c(O)cc2[C@@H](c2ccccc2)C1` yielded a K0.5 in assay [1] of more than 500 nM.

`Oc1ccc2c(c1)[C@@H]1c3cc(O)c(O)cc3CC[C@H]1NC2`: the K0.5 in assay [1] was found to be 194 nM; in assay [3] it was 18.8 nM. The Selectivity in assay [2] was 10.3. In addition, the Intrinsic activity in assay [4] is 95%.

(Values after ChEMBL document CHEMBL1128688, “Synthesis and biological evaluation of a series of substituted benzo[a]phenanthridines as agonists at D1 and D2 dopamine receptors” (J Med Chem, 1995).)
